pIC50: −log10 of the molar value.
Tests used:
[1] = molecular target: T1, vanilloid receptor (Rattus norvegicus, UniProt O35433); experiment: 45Ca influx test (calcium uptake) in primary cultured neonatal rat DRG neurons, capsaicin-stimulated; assay type: cell-based, SD rats; settings: capsaicin 0.5 µM, 45Ca 10 µCi/ml, 10 mins at room temperature, read-out: Antagonist Calcium Uptake Test (IC50)
T1 construct: DRG nerve cells from the primary culture of 2 days were equilibrated by washing 4 times; endogenous in cells; host or cells: primary culture of dorsal root ganglion (DRG) neurons from neonatal SD rats
T1 sequence (O35433 whole entry): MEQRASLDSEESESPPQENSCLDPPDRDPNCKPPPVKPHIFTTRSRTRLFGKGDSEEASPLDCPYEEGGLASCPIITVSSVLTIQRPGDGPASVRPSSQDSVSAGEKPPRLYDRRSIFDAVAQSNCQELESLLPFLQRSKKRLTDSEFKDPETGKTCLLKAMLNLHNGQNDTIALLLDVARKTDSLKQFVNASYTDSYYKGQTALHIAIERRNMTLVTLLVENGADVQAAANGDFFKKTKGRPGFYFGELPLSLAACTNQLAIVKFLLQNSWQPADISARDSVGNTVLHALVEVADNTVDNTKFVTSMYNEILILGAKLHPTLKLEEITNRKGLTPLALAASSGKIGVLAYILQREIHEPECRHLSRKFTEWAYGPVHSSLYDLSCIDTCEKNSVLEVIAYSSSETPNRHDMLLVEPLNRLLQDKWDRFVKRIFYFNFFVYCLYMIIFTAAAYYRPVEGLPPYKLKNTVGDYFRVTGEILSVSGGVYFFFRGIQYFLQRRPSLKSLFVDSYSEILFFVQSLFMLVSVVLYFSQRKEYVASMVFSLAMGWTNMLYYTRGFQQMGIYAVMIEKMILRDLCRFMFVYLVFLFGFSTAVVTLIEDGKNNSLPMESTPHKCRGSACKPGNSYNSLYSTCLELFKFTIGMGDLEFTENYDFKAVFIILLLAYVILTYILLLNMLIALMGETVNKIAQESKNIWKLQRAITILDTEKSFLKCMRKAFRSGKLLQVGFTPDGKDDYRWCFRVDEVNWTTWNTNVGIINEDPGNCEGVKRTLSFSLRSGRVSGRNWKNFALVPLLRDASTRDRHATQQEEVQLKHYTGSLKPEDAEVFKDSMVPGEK
Protocol: 1) Separation of spinal dorsal root ganglia (DRG) in newborn rats and primary culture thereof
Neonatal (2-3 day old or younger than 2-3 day old) SD rats were put in ice for 5 minutes to anesthetize and disinfected with 70% ethanol. DRG of all part of spinal cord were dissected (Wood et al., 1988, J. Neurosci. 8, pp3208-3220) and collected in DME/F12 medium to which 1.2g/l sodium bicarbonate, 50mg/l gentamycin were added. The DRG were incubated sequentially at 37°C for 30 min in 200 U/ml collagenase and 2.5mg/ml trypsin, separately. The gangiia were washed twice with DME/F12 medium supplemented with 10% horse serum, triturated through a fire-polished Pasteur pipette, filtered through Nitex 80 membrane to obtain single cell suspension and the suspension was washed once more. This was subjected to centrifugation, then resuspended in cell culture medium at certain level of cell density. As the cell culture medium, DME/F12 medium supplemented with 10% horse serum was diluted with identical medium conditioned by C6 glioma cells 2 days on a confluent monolayer (1:1), and NGF (Nerve Growth Factor) was added to adjust 200ng/ml as final concentration. After the cells were grown 2 days in medium where cytosine arabinoside (Ara-C, 100 µM) was added to kill dividing nonneuronal cells, medium was changed to one without Ara-C. The resuspended cells were plated at a density of 1500-2000 neurons/well onto Terasaki plates previously coated with 10 µg/ml poly-D-ornithine.
2) ^45 Ca influx experiments
DRG nerve cells from the primary culture of 2 days were equilibrated by washing 4 times with HEPES (10mM, pH 7.4)-buffered Ca ^2+, Mg^2+-free HBSS (H-HBSS). The solution in each well was removed from the individual well. Medium containing the test compound plus capsaicin (final concentration 0.5 µM) and ^45Ca (final concentration 10 µCi/ml) in H-HBSS was added to each well and incubated at room temperature for 10 mins. Terasaki plates were washed five times with H-HBSS and dried at room temperature. To each well, 0.3% SDS (10 µl) was added to elute ^45Ca. After the addition of scintillation cocktail of into each well, the amount of ^45Ca influx into neuron was measured by counting radioactivity. […] [Table 1] Results of Calcium Influx Test

[2] = tested on: Male ICR mice; experiment: Analgesic activity test: mouse writhing test induced with phenyl-p-quinone; assay type: in vivo; settings: ip, 0.5 h, 30 min before phenyl-p-quinone, read-out: Analgesic effect (%Inhibition); for inhibition in vivo at 1 mg/kg: Dose 1 mg/kg intraperitoneally
Protocol: 2. Analgesic activity test: Mouse writhing test by inducing with phenyl-p-quinone
Male ICR mice (mean body weight 25g) were maintained in a controlled lighting environment (12 h on/ 12 h off) for experiment. Animals received an intraperitoneal injection of 0.3ml of the chemical irritant phenyl-p-quinone (dissolved in saline containing 5% ethanol to be a dose of 4.5mg/kg) and 6 mins later, the number of abdominal constrictions was counted in the subsequent 6 mins period. Animals (10 animals/group) received 0.2ml of test compounds solution in vehicle of ethanol/Tween 80/saline (10/10/80) intraperitoneally 30 min before the injection of phenyl-p-quinone. A reduction in the number of writhes responding to the test drug compound relative to the number responding in saline control group was considered to be indicative of an analgesic effect. Analgesic effect was calculated by % inhibition equation (% inhibition=(C-T)/C x 100), wherein C and T represent the number of writhes in control and compound-treated group, respectively (Table 2).

| Structure (SMILES) | pIC50 [1] | further results |
| --- | --- | --- |
| CC(C)(C)c1ccc(OCC(=O)NCc2ccc(NS(C)(=O)=O)c(F)c2)cc1 [Example 2, 2-(4-tert-Butylphenoxy)-N-(3-fluoro-4-methanesulfonylaminobenzyl)acetamide] | 8.07 | inhibition in vivo at 0.3 mg/kg ([2]; Dose 0.3 mg/kg intraperitoneally): 51% |
| CS(=O)(=O)Nc1ccc(CNC(=O)COc2ccc(C(F)(F)F)cc2)cc1F [Example 24, N-(3-Fluoro-4-methanesulfonylamino-benzyl)-2-(4-trifluoromethylphenoxy)-acetamide] | 5.89 | inhibition in vivo at 10 mg/kg ([2]; Dose 10 mg/kg intraperitoneally): 28% |
| CC(C)c1ccc(OCC(=O)NCc2ccc(NS(C)(=O)=O)c(F)c2)cc1 [Example 52, N-(3-Fluoro-4-methanesulfonylaminobenzyl)-2-(4-isopropylphenoxy)acetamide] | 7.16 | inhibition in vivo at 1 mg/kg [2]: 49% |
| CCC(C)c1ccc(OCC(=O)NCc2ccc(NS(C)(=O)=O)c(F)c2)cc1 (stereo not drawn) [Example 53, N-(3-Fluoro-4-methanesulfonylaminobenzyl)-2-(4-sec-butylphenoxy)acetamide] | 7.13 | inhibition in vivo at 1 mg/kg [2]: 49% |
| C=Cc1cc(CNC(=O)COc2ccc(C(C)(C)C)cc2)cc(F)c1NS(C)(=O)=O [Example 5, 2-(4-tert-Butylphenoxy)-N-(3-fluoro-4-methanesulfonylamino-5-vinylbenzyl)acetamide] | 7.47 | inhibition in vivo at 1 mg/kg [2]: 59% |
| CC(C)(C)c1cccc(OCC(=O)NCc2ccc(NS(C)(=O)=O)c(F)c2)c1 [Example 40, N-(3-Fluoro-4-methanesulfonylaminobenzyl)-2-(3-tert-butylphenoxy)acetamide] | 5.74 |  |
| CS(=O)(=O)Nc1ccc(CNC(=O)COc2ccc(-c3ccccc3)cc2)cc1F [Example 27, 2-(Biphenyl-4-yloxy)-N-(3-fluoro-4-methanesulfonylamino-benzyl)-acetamide] | < 5.00 |  |
| CS(=O)(=O)Nc1ccc(CNC(=O)COc2ccc(Cl)cc2)cc1F [Example 34, 2-(4-Chloro-phenoxy)-N-(3-fluoro-4-methanesulfonylamino-benzyl)-acetamide] | 5.06 |  |
| CC(=O)c1cc(C(F)(F)F)ccc1OCC(=O)NCc1ccc(NS(C)(=O)=O)c(F)c1 [Example 44, 2-(2-Acetyl-4-trifluoromethyl-phenoxy)-N-(3-fluoro-4-methanesulfonylamino-benzyl)-acetamide] | < 5.00 |  |
| Cc1cc(OCC(=O)NCc2ccc(NS(C)(=O)=O)c(F)c2)ccc1[N+](=O)[O-] [Example 35, N-(3-Fluoro-4-methanesulfonylaminobenzyl)-2-(3-methyl-4-nitrophenoxy)acetamide] | < 5.00 |  |
| CS(=O)(=O)Nc1ccc(CNC(=O)COc2ccc(Cl)c(F)c2)cc1F [Example 59, N-(3-Fluoro-4-methanesulfonylaminobenzyl)-2-(4-chloro-3-fluorophenoxy)acetamide] | < 5.00 |  |
| CS(=O)(=O)Nc1ccc(CNC(=O)COc2ccc(I)cc2)cc1F [Example 36, N-(3-Fluoro-4-methanesulfonylamino-benzyl)-2-(4-iodo-phenoxy)-acetamide] | 5.92 |  |
| CC(C)(C)c1ccc(OCC(=NC#N)NCc2ccc(NS(C)(=O)=O)c(F)c2)cc1 [Example 18, 2-(4-tert-Butylphenoxy)-N-(3-fluoro-4-methanesulfonylaminobenzyl)-N'-cyanoacetamidine] | 6.92 | inhibition in vivo at 1 mg/kg [2]: 33% |
| Cc1cc(CNC(=O)COc2ccc(C(C)(C)C)cc2)cc(F)c1NS(C)(=O)=O [Example 10, 2-(4-tert-Butylphenoxy)-N-(3-fluoro-4-methanesulfonylamino-5-methylbenzyl) acetamide] | 6.80 |  |
| CS(=O)(=O)Nc1ccc(CNC(=O)COc2ccc(C3CCCCC3)cc2)cc1F [Example 64, N-(3-fluoro-4-methanesulfonylamino-benzyl)-2-(4-Cyclohexylphenoxy)-acetamide] | < 5.00 |  |
| CC(C)(C)c1ccc(OCC(=O)NCc2ccc(NS(C)(=O)=O)c(Cl)c2)cc1 [Example 3, 2-(4-tert-Butylphenoxy)-N-(3-chloro-4-methanesulfonylaminobenzyl)-acetamide] | 6.74 | inhibition in vivo at 1 mg/kg [2]: 39% |
| CC(C)(Oc1ccc(C(F)(F)F)cc1)C(=O)NCc1ccc(NS(C)(=O)=O)c(F)c1 [Example 23, N-(3-Fluoro-4-methanesulfonylamino-benzyl)-2-methyl-2-(4-trifluoromethyl-phenoxy)-propionamide] | < 5.00 |  |
| CS(=O)(=O)Nc1ccc(CNC(=O)COc2ccc(OC(F)(F)F)cc2)cc1F [Example 28, N-(3-Fluoro-4-methanesulfonylaminobenzyl)-2-(4-(trifluoromethoxy)phenoxy)acetamide] | 5.37 |  |
| CS(=O)(=O)Nc1ccc(CNC(=O)COc2c(I)cc(C(F)(F)F)cc2I)cc1F [Example 38, 2-(2,6-Diiodo-4-trifluoromethyl-phenoxy)-N-(3-fluoro-4-methanesulfonylamino-benzyl)-acetamide] | 5.59 |  |
| C#Cc1cc(CNC(=O)CSc2ccc(C(C)(C)C)cc2)cc(F)c1NS(C)(=O)=O [Example 20, 2-(4-tert-Butyl-phenylsulfanyl)-N-(3-ethynyl-5-fluoro-4-methanesulfonylamino-benzyl)-acetamide] | 6.72 |  |
| C[C@@H](NC(=O)COc1ccc(C(C)(C)C)cc1)c1ccc(NS(C)(=O)=O)c(F)c1 [Example 12, (R)-2-(4-tert-Butylphenoxy)-N-[1-(3-fluoro-4-methanesuffonylaminophenyl)ethyl]acetamide] | 7.15 | inhibition in vivo at 1 mg/kg [2]: 27% |
| C=Cc1cc(CNC(=O)COc2ccc3c(c2)OCO3)cc(F)c1NS(C)(=O)=O [Example 30, 2-(Benzo[1,3]dioxol-5-yloxy)-N-(3-fluoro-4-methanesulfonylamino-5-vinyl-benzyl)-acetamide] | 5.47 |  |
| CS(=O)(=O)Nc1ccc(CNC(=O)COc2ccc(F)cc2F)cc1F [Example 37, N-(3-Fluoro-4-methanesulfonylaminobenzyl)-2-(2,4-difluorophenoxy)acetamide] | < 5.00 |  |
| CS(=O)(=O)Nc1ccc(CNC(=O)COc2ccc3c(c2)OCO3)cc1F [Example 29, 2-(Benzo[1,3]dioxol-5-yloxy)-N-(3-fluoro-4-methanesulfonylaminobenzyl)-acetamide] | < 5.00 |  |
| CS(=O)(=O)Nc1ccc(CNC(=O)COc2ccc(-c3ccccc3Cl)cc2)cc1F [Example 60, 2-(2'-Chloro-biphenyl-4-yloxy)-N-(3-fluoro-4-methanesulfonylaminobenzyl)-acetamide] | < 5.00 |  |
| CC(C)(C)c1ccc(OC(F)C(=O)NCc2ccc(NS(C)(=O)=O)c(F)c2)cc1 (stereo not drawn) [Example 48, 2-(4-tert-Butylphenoxy)-2-fluoro-N-(3-fluoro-4-methanesulfonylaminobenzyl)acetamide] | 6.74 |  |
| C#Cc1cc(CNC(=O)COc2ccc(C(C)(C)C)cc2)cc(F)c1NS(C)(=O)=O [Example 6, 2-(4-tert-Butylphenoxy)-N-(3-ethynyl-5-fluoro-4-methanesulfonylaminobenzyl)acetamide] | 7.72 | inhibition in vivo at 0.1 mg/kg ([2]; Dose 0.1 mg/kg intraperitoneally): 41% |

— patent EP1857440A1, “Novel compounds, isomer thereof, or pharmaceutically acceptable salts thereof as vanilloid receptor antagonist; and pharmaceutical compositions containing the same” (Amorepacific Corporation, priority 2006, dated 2007)
